Experimental data taken from patent US20240270762A1, “PENICILLIN-BINDING PROTEIN INHIBITORS” (priority 2021, published 2024).
≈ marks a conversion by molar mass, not a printed value.

Key:
[1] = system: P. aeruginosa ATCC 27853; assay: microbe, parasite or virus in culture; type: cell-based; conditions: Pseudomonas aeruginosa, ATCC27853, read-out: Minimum inhibitory concentration, P. aeruginosa ATCC 27853
[2] = system: P. aeruginosa (ΔmexAB-oprM); assay: Broth microdilution MIC in iron-depleted CAMHB (IDM); type: cell-based; conditions: Pseudomonas aeruginosa; iron-depleted CAMHB (IDM); […]; read-out: Minimum inhibitory concentration, P. aeruginosa ΔmexAB-oprM
[3] = system: A. baumannii 1258916; assay: microbe, parasite or virus in culture; type: cell-based, Acinetobacter baumannii; conditions: Acinetobacter baumannii, 1258916, read-out: MIC, A. baumannii 1258916
[4] = system: B. thailandensis ATCC 700388; assay: microbe, parasite or virus in culture; type: cell-based; conditions: Burkholderia thailandensis, ATCC700388, read-out: Minimum inhibitory concentration (MIC), B. thailandensis ATCC 700388
[5] = system: P. aeruginosa CDC-0110; assay: microbe, parasite or virus in culture; type: cell-based; conditions: Pseudomonas aeruginosa, CDC0110, read-out: Minimum inhibitory concentration, P. aeruginosa CDC-0110

Row | Compound | MIC [1] [µg/mL] | MIC [2] [µg/mL] | MIC [3] [µg/mL] | MIC [4] [µg/mL] | MIC [5] [µg/mL]
1 | CS(=O)(=O)N1CCN(C(=O)N[C@@H](C(=O)N[C@H]2Cc3ccc(F)c(C(=O)O)c3OB2O)c2ccc(P(=O)(O)O)c(F)c2)C1=O (single isomer, unassigned) [Example 19] | > 128 | 32 to 64 (≈ 49.5 to 99 µM) | > 128 | 32 to 64 (≈ 49.5 to 99 µM) | > 128
2 | O=C(N[C@@H](C(=O)N[C@H]1Cc2cccc(C(=O)O)c2OB1O)c1ccc(P(=O)(O)O)cc1)c1ccc(O)c(O)c1Cl [Example 49, (R)-3-((R)-2-(2-chloro-3,4-dihydroxybenzamido)-2-(4-phosphonophenyl)acetamido)-2-hydroxy-3,4-dihydro-2H-benzo[e][1,2]oxaborinine-8-carboxylic acid] | 2 to 4 (≈ 3.39 to 6.77 µM) | < 1 | > 128 | 2 to 4 (≈ 3.39 to 6.77 µM) | < 1
3 | O=C(NCCN1CCN(C(=O)NC(C(=O)N[C@H]2Cc3ccc(F)c(C(=O)O)c3OB2O)c2ccc(P(=O)(O)O)cc2)C(=O)C1=O)c1ccc(O)c(O)c1Cl (stereo partly drawn) [Example 120, (3R)-3-(2-(4-(2-(2-chloro-3,4-dihydroxybenzamido)ethyl)-2,3-dioxopiperazine-1-carboxamido)-2-(4-phosphonophenyl)acetamido)-7-fluoro-2-hydroxy-3,4-dihydro-2H-benzo[e][1,2]oxaborinine-8-carboxylic acid] | < 1 | < 1 | < 1 | < 1 | < 1
